Test results from ChEMBL document CHEMBL1136197, “Anilinopyrazole as selective CDK2 inhibitors: design, synthesis, biological evaluation, and X-ray crystallographic analysis” (Bioorg Med Chem Lett, 2003).

Legend:
[1] = biological target: Cyclin-dependent kinase 2 (Homo sapiens, UniProt P24941); experiment: In vitro inhibition of Cyclin-dependent kinase 2 was determined.
[2] = biological target: Cyclin-dependent kinase 1 (Homo sapiens, UniProt P06493); experiment: Inhibition of Cyclin-dependent kinase 1
Sequence of Cyclin-dependent kinase 1 (P06493 whole entry): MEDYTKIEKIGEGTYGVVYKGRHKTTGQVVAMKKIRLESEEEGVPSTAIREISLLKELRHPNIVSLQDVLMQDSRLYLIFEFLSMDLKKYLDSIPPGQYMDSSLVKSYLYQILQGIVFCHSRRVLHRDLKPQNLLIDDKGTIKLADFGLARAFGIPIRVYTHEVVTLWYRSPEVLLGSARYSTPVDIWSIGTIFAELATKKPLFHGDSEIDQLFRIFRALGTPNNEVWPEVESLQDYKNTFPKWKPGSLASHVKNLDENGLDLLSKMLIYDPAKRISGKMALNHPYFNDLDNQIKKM

NS(=O)(=O)c1ccc(Nc2cc(-c3ccc(Br)cc3)n[nH]2)cc1
IC50 [1]: 10 nM
IC50 [2]: 126 nM

NS(=O)(=O)c1ccc(Nc2cc(-c3cccc(NC(=O)Nc4cc(C(F)(F)F)ccc4F)c3)n[nH]2)cc1
IC50 [1]: 61.6 nM
IC50 [2]: 794 nM

NS(=O)(=O)c1ccc(Nc2cc(-c3cccc(O)c3)n[nH]2)cc1 [GW831090X]
IC50 [1]: 9.1 nM
IC50 [2]: 398 nM

NS(=O)(=O)c1ccc(Nc2cc(-c3cccc(Br)c3)n[nH]2)cc1
IC50 [1]: 23.4 nM

NS(=O)(=O)c1ccc(Nc2cc(-c3ccc(F)cc3)n[nH]2)cc1
IC50 [1]: 17.4 nM

CS(=O)(=O)Nc1cccc(-c2cc(Nc3ccc(S(N)(=O)=O)cc3)[nH]n2)c1
IC50 [1]: 10.7 nM
IC50 [2]: 501 nM

CS(=O)(=O)Nc1ccc(Nc2cc(-c3cccc(Br)c3)n[nH]2)cc1
IC50 [1]: 602 nM

COc1cccc(-c2cc(Nc3ccc(S(N)(=O)=O)cc3)[nH]n2)c1
IC50 [1]: 24.5 nM
IC50 [2]: 398 nM

COc1ccc(-c2cc(Nc3ccc(S(N)(=O)=O)cc3)[nH]n2)cc1F
IC50 [1]: 407 nM

NS(=O)(=O)c1ccc(Nc2cc(-c3ccc([N+](=O)[O-])cc3)n[nH]2)cc1
IC50 [1]: 0.33 nM

Nc1ccc(-c2cc(Nc3ccc(S(N)(=O)=O)cc3)[nH]n2)cc1
IC50 [1]: 0.34 nM
IC50 [2]: 501 nM

NS(=O)(=O)c1ccc(Nc2cc(-c3cccc(NS(=O)(=O)c4ccccc4)c3)n[nH]2)cc1
IC50 [1]: 10.7 nM
IC50 [2]: 501 nM

NS(=O)(=O)c1ccc(Nc2cc(-c3ccc(O)c(F)c3)n[nH]2)cc1 [GW831091X]
IC50 [1]: 12.6 nM
IC50 [2]: 200 nM

NS(=O)(=O)c1ccc(Nc2cc(-c3cccc(N4CCOCC4)c3)n[nH]2)cc1
IC50 [1]: 490 nM

CN(C)c1ccc(-c2cc(Nc3ccc(S(N)(=O)=O)cc3)[nH]n2)cc1
IC50 [1]: > 2000 nM

NS(=O)(=O)c1cccc(Nc2cc(-c3ccc(F)cc3)n[nH]2)c1
IC50 [1]: 871 nM

Nc1cccc(-c2cc(Nc3ccc(S(N)(=O)=O)cc3)[nH]n2)c1
IC50 [1]: 166 nM
